Reference: US20200060276A1, “THIAZOLE COMPOUND AND HERBICIDE” (OAT Agrio Co., Ltd., priority 2017, published 2020)

Legend:
Assay type in all cases: in vivo
[1] = system: Echinochloa crus-galli (L.) P. Beauv. var. formosensis Ohwi; assay: Test for Herbicidal Effect in Flooding Treatment (#2), ECHDG at 2-2.5 leaf stage; conditions: for inhibition at 200 g/ha: Echinochloa crus-galli, 504 h, flooding treatment (#2), ECHDG at 2-2.5 leaf stage, dose of 0.2 kg/ha, day 21, visual observation, read-out: growth inhibition effect; for ECHDG (2-2.5L) #2 herbicidal effect (growth inhibition grade): flooding treatment at 2-2.5 leaf stage, dose 0.2 kg/ha, visual observation on day 21
Procedure, shortened: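 Scoring is a visual 0–5 scale of growth inhibition (0 below 10%, 5 at 90% or more or full withering), taken 21 days after treatment in a glasshouse. Dose was 0.2 kg/ha, applied as acetone/Tween 80 aqueous solution onto flooded soil once seedlings reached the 2–2.5 leaf stage.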

Digitaria ciliaris = assay: Test for Herbicidal Effect in Soil Treatment (#3); conditions: 504 h, dose of 2 kg/ha, day 21, visual observation, read-out: growth inhibition effect
Excerpt: 0: Growth inhibition effect is less than 10%. 1: Growth inhibition effect is equal to or greater than 10%, and less than 30%. 2; Growth inhibition effect is equal to or greater than 30%, and less than 50%. 3: Growth inhibition effect equal to or greater than 50%, and less than 70%. 4: Growth inhibition effect is equal to or greater than 70%, and less than 90%. 5: Growth inhibition effect is equal to or greater than 90%, or complete withering is achieved. (#3) Test for Herbicidal Effect in Soil Treatment: Styrol cups each having an opening diameter of 8 cm (about 52 cm^2) were respectively filled with soil (45 ml) which had been passed through a sieve (2 mm). Water (about 115 ml) was added. Thereafter, Digitaria ciliaris was seeded. Each of the compounds of the present invention was dissolved in acetone, and the obtained product was then diluted with water containing Tween 80°. Each of the resultant chemical solutions was dropped on the entire surface of an associated one of treatment sections, so that each section was treated with 1 ml of the respective chemical solution (a dose of 2 kg/ha). After the treatment, the plants were grown in a glasshouse. On day 21, a survey was conducted on the herbicidal activity by visual observation, and evaluation was made according to the following criteria. The herbicidal activity of the following comparative compounds A and B (the compounds disclosed Japanese Unexamined Patent Publication No. 2003-096059) were evaluated.

Monochoria vaginalis = assay: Test for Herbicidal Effect in Flooding Treatment (#1), MONVA; conditions: flooding treatment at seeding, dose 2 kg/ha, visual observation on day 21
Procedure, shortened: (§1)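 Visual scores from 0 (<10% inhibition) to 5 (≥90% or complete withering) were taken 21 days after treatment of glasshouse-grown plants. Seeds were sown in soil flooded for 24 h beforehand, and compound was applied dropwise onto the surface at 2 kg/ha as an acetone solution diluted in water with Tween 80.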

[2] = system: Echinochloa crus-galli (L.) P. Beauv. var. formosensis Ohwi; assay: Test for Herbicidal Effect in Flooding Treatment (#1), ECHDG; conditions: flooding treatment at seeding, dose 2 kg/ha, visual observation on day 21
Procedure, shortened: as §1

Scirpus juncoides = assay: Test for Herbicidal Effect in Flooding Treatment (#1), SCIJU; conditions: flooding treatment at seeding, dose 2 kg/ha, visual observation on day 21
Procedure, shortened: as §1

Cyperus microiria = assay: Test for Herbicidal Effect in Flooding Treatment (#1), CYMIC; conditions: flooding treatment at seeding, dose 2 kg/ha, visual observation on day 21
Procedure, shortened: as §1

Row | SMILES | inhibition at 200 g/ha [1] [%] | inhibition at 2000 g/ha (Digitaria ciliaris) [%] | ECHDG (2-2.5L) #2 herbicidal effect (growth inhibition grade) [1] | MONVA #1 herbicidal effect (growth inhibition grade) (Monochoria vaginalis) | ECHDG #1 herbicidal effect (growth inhibition grade) [2] | SCIJU #1 herbicidal effect (growth inhibition grade) (Scirpus juncoides) | CYMIC #1 herbicidal effect (growth inhibition grade) (Cyperus microiria)
1 | O=S(=O)(Cc1ccccc1Cl)c1ncc(Cl)s1 [comparative compound B, reference compound] | 30 to 50 | 30 to 50 |  |  |  |  | 
2 | CCOc1c(F)ccc(F)c1CS(=O)(=O)c1ncc(Cl)s1 [Compound 1C-27] |  |  | 5 (Growth inhibition effect is equal to or greater than 90%, or complete withering is achieved) | 5 (Growth inhibition effect is equal to or greater than 90%, or complete withering is achieved) | 5 (Growth inhibition effect is equal to or greater than 90%, or complete withering is achieved) | 5 (Growth inhibition effect is equal to or greater than 90%, or complete withering is achieved) | 5 (Growth inhibition effect is equal to or greater than 90%, or complete withering is achieved)
3 | O=S(=O)(Cc1c(F)cc(OCCC(F)(F)F)cc1F)c1ncc(Cl)s1 [Compound 1C-117] |  |  | 4 (Growth inhibition effect is equal to or greater than 70%, and less than 90%) | 5 (Growth inhibition effect is equal to or greater than 90%, or complete withering is achieved) | 5 (Growth inhibition effect is equal to or greater than 90%, or complete withering is achieved) | 5 (Growth inhibition effect is equal to or greater than 90%, or complete withering is achieved) | 5 (Growth inhibition effect is equal to or greater than 90%, or complete withering is achieved)
4 | CC(C)Oc1ccccc1CS(=O)(=O)c1ncc(Cl)s1 [Compound 1C-36] |  |  | 4 (Growth inhibition effect is equal to or greater than 70%, and less than 90%) | 5 (Growth inhibition effect is equal to or greater than 90%, or complete withering is achieved) | 5 (Growth inhibition effect is equal to or greater than 90%, or complete withering is achieved) | 5 (Growth inhibition effect is equal to or greater than 90%, or complete withering is achieved) | 5 (Growth inhibition effect is equal to or greater than 90%, or complete withering is achieved)
5 | CCOc1cccc(F)c1CS(=O)(=O)c1ncc(Cl)s1 [Compound 1C-19] | ≥ 90 |  | 5 (Growth inhibition effect is equal to or greater than 90%, or complete withering is achieved) | 5 (Growth inhibition effect is equal to or greater than 90%, or complete withering is achieved) | 5 (Growth inhibition effect is equal to or greater than 90%, or complete withering is achieved) | 5 (Growth inhibition effect is equal to or greater than 90%, or complete withering is achieved) | 5 (Growth inhibition effect is equal to or greater than 90%, or complete withering is achieved)
6 | CCOc1ccc(CS(=O)(=O)c2ncc(Cl)s2)cc1C(F)(F)F [Compound 1C-98] |  |  | 1 (Growth inhibition effect is equal to or greater than 10%, and less than 30%) | 5 (Growth inhibition effect is equal to or greater than 90%, or complete withering is achieved) | 5 (Growth inhibition effect is equal to or greater than 90%, or complete withering is achieved) | 5 (Growth inhibition effect is equal to or greater than 90%, or complete withering is achieved) | 5 (Growth inhibition effect is equal to or greater than 90%, or complete withering is achieved)
7 | CCOc1cc(C)c(Cl)cc1CS(=O)(=O)c1ncc(Cl)s1 [Compound 1C-30] |  |  | 5 (Growth inhibition effect is equal to or greater than 90%, or complete withering is achieved) | 5 (Growth inhibition effect is equal to or greater than 90%, or complete withering is achieved) | 5 (Growth inhibition effect is equal to or greater than 90%, or complete withering is achieved) | 5 (Growth inhibition effect is equal to or greater than 90%, or complete withering is achieved) | 5 (Growth inhibition effect is equal to or greater than 90%, or complete withering is achieved)
8 | O=S(=O)(Cc1ccccc1F)c1ncc(Cl)s1 [comparative compound A, reference compound] | 10 to 30 | 30 to 50 |  |  |  |  | 
9 | COCOc1cc(Cl)c(CS(=O)(=O)c2ncc(Cl)s2)c(Cl)c1 [Compound 1C-119] |  |  | 4 (Growth inhibition effect is equal to or greater than 70%, and less than 90%) | 5 (Growth inhibition effect is equal to or greater than 90%, or complete withering is achieved) | 5 (Growth inhibition effect is equal to or greater than 90%, or complete withering is achieved) | 5 (Growth inhibition effect is equal to or greater than 90%, or complete withering is achieved) | 5 (Growth inhibition effect is equal to or greater than 90%, or complete withering is achieved)
10 | COc1cccc(F)c1CS(=O)(=O)c1ncc(Cl)s1 [Compound 1C-5] |  |  | 5 (Growth inhibition effect is equal to or greater than 90%, or complete withering is achieved) | 5 (Growth inhibition effect is equal to or greater than 90%, or complete withering is achieved) | 5 (Growth inhibition effect is equal to or greater than 90%, or complete withering is achieved) | 5 (Growth inhibition effect is equal to or greater than 90%, or complete withering is achieved) | 5 (Growth inhibition effect is equal to or greater than 90%, or complete withering is achieved)
11 | CCOc1cc(CS(=O)(=O)c2ncc(Cl)s2)cc(C(F)(F)F)c1 [Compound 1C-79] |  |  | 2 (Growth inhibition effect is equal to or greater than 30%, and less than 50%) | 5 (Growth inhibition effect is equal to or greater than 90%, or complete withering is achieved) | 5 (Growth inhibition effect is equal to or greater than 90%, or complete withering is achieved) | 5 (Growth inhibition effect is equal to or greater than 90%, or complete withering is achieved) | 5 (Growth inhibition effect is equal to or greater than 90%, or complete withering is achieved)
12 | CCOc1cc(CS(=O)(=O)c2ncc(Cl)s2)ccc1Cl [Compound 1C-77] |  |  | 3 (Growth inhibition effect equal to or greater than 50%, and less than 70%) | 5 (Growth inhibition effect is equal to or greater than 90%, or complete withering is achieved) | 5 (Growth inhibition effect is equal to or greater than 90%, or complete withering is achieved) | 5 (Growth inhibition effect is equal to or greater than 90%, or complete withering is achieved) | 5 (Growth inhibition effect is equal to or greater than 90%, or complete withering is achieved)
